The record followed here is ChEMBL document CHEMBL1201862, “PubChem BioAssay data set” (2004).

The target in experiment [1] is T1, Runt-related transcription factor 1/Core-binding factor subunit beta (Homo sapiens, UniProt Q01196+Q13951). Description: Runt domain/CBFb-SMMHC interaction disruptors – biochemical, TR-FRET (AID 1438). In kind it is protein assay. (TR-FRET usually uses a lanthanide donor and a delayed reading to cut background.)
Experiment [2] has as its target T1, Runt-related transcription factor 1/Core-binding factor subunit beta. Description: disruptors of Runt domain/CBFb-SMMHC interaction – biochemical, FRET, Cerulean-Runt, Venus-CBFb-SMMHC, uHTS, […] (AID 1434). The format is protein assay.
Experiment [3] deals with Troponin, cardiac muscle (Homo sapiens, UniProt P19429+P45379+P63316). Put plainly: Fluorescence-based biochemical high throughput dose response assay for activators of the calcium sensitivity of cardiac Regulated Thin Filaments (RTF). [Related pubchem assays (depositor defined):AID493008, AID493018, AID504382, AID504383]. The format is protein-complex assay.
In experiment [4] the target is ORF 73 (Human herpesvirus 8, UniProt O40947). Put plainly: KSHV LANA DNA-binding disruption – biochemical, fluorescence polarization, cherry-picked samples, dose response (AID 504725).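 Further: fluorescence polarization of a labeled DNA duplex reporting LANA DNA binding; potency is for inhibitors that block LANA binding to the DNA.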 Details: species or system Human gammaherpesvirus 8. A general note: Polarisation of emitted light reports the rotation of a fluorescent probe.
For experiment [5], the system named is HeLa. Description: viability loss in HeLa cells – cell-based, 24 h, cherry-picked samples, cytotoxicity control, dose response (AID 504726).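 Further: potency for cytotoxicity as loss of luminescence signal.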 The format is functional. The note with it: Homo sapiens.
Experiment [6] concerns the target Beta-lactamase (Pseudomonas aeruginosa, UniProt Q79MP6).
Experiment [7] has as its target Beta-lactamase (Salmonella choleraesuis (strain SC-B67), UniProt Q5J463).
The target of experiment [8] is Mu-type opioid receptor (Homo sapiens, UniProt P35372). Description: SAR Analysis of Antagonists of the MOR Receptor using an Image-Based Assay - Set 3. [Related pubchem assays (depositor defined):AID1777, AID1785, AID1786, AID1966, AID2133, AID2136, AID2284, AID2285, AID2420]. The format is functional.
In experiment [9] the target is Delta-type opioid receptor (Homo sapiens, UniProt P41143). Description: SAR Analysis of Antagonists of the DOR Receptor using an Image-Based Assay - Set 3. [Related pubchem assays (depositor defined):AID1777, AID1785]. In kind it is functional.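 Further: U2OS cells expressing DOR1 and beta-arrestin GFP stimulated with 100 nM SNC80; imaging of GFP-tagged beta-arrestin moving into spots after receptor activation.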
Experiment [10] addresses T2, Kappa-type opioid receptor (Homo sapiens, UniProt P41145). Put plainly: SAR analysis of Antagonists of the Kappa Opioid Receptor (KOR) using an Image-Based Assay - Set 3. [Related pubchem assays (depositor defined):AID1777, AID1785]. In kind it is functional.
In experiment [11] the target is T2, Kappa-type opioid receptor. Description: SAR analysis of small molecule antagonists of the kappa opioid receptor via a luminescent beta-arrestin assay - Set 3. [Related pubchem assays (depositor defined):AID1777, AID1778, AID1785, AID1786, AID1966, AID2133, AID2136, AID2285, AID2495]. In kind it is functional.
The target of experiment [12] is T3, Replicative DNA helicase DnaB (Mycobacterium tuberculosis, UniProt P9WMR3).
T3 sequence (P9WMR3 whole entry): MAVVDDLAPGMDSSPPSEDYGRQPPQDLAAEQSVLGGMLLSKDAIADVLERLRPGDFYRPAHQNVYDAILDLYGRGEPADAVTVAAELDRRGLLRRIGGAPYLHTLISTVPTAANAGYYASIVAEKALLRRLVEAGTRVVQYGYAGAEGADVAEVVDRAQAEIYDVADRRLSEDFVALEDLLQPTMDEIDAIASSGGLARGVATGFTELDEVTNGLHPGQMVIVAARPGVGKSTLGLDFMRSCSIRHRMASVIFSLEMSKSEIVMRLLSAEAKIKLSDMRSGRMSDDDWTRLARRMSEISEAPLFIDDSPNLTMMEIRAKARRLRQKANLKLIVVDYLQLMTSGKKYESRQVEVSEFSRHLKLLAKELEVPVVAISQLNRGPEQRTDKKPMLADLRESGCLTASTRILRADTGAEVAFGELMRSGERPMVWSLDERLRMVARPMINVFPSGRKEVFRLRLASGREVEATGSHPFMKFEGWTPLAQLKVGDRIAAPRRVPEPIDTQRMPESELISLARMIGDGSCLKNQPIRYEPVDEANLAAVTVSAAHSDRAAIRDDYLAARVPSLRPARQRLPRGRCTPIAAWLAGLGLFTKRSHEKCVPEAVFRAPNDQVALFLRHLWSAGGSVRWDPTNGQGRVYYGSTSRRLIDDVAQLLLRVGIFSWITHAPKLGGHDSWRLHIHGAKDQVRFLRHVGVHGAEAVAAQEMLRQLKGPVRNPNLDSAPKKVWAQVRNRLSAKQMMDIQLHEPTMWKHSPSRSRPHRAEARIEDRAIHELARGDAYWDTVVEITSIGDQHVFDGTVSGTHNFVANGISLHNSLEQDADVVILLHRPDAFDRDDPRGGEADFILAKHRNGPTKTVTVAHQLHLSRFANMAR
Description: DnaB intein splicing inhibitors, dose response, biochemical, cell-free fluorescence (AID 449749). In kind it is functional.

The nature of experiment [13]: Intein inhibitors as potential Tuberculosis drugs, a cytotoxicity screen. [Related pubchem assays (depositor defined):AID2221, AID2223, AID434968, AID435010, AID449749, AID449750, AID489010]. The format is functional.
In experiment [14] the test system is Vero. Put plainly: mammalian cell viability reduction – secondary assay, cytotoxicity control for West Nile virus antiviral project, dose response (AID 1650). In kind it is functional. Conditions: Chlorocebus sabaeus.
In experiment [15] the target is Sphingosine 1-phosphate receptor 1 (Homo sapiens, UniProt P21453). In kind it is functional.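 Further: Tango beta-arrestin reporter U2OS cells stimulated with S1P near its EC80; inhibitor potency meaning antagonism of receptor activation by the natural agonist.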
Experiment [16] deals with T4, Sphingosine 1-phosphate receptor 4 (Homo sapiens, UniProt O95977).
T4 sequence (O95977 whole entry): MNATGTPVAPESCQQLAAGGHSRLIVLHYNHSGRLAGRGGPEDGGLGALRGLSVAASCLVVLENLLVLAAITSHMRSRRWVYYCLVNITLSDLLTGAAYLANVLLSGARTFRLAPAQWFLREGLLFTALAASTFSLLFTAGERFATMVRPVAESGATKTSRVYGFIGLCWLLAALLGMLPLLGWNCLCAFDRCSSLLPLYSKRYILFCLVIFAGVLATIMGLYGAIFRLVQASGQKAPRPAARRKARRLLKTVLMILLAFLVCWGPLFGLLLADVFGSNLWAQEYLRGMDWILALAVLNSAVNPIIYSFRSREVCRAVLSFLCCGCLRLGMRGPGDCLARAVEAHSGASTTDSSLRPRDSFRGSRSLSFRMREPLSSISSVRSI
Description: Fluorescence dose response cell-based high throughput screening assay for antagonists of the Sphingosine 1-Phosphate Receptor 4 (S1P4). [Related pubchem assays: 1524 (Confirmation in triplicates.), 1510 (Primary screen.)]. The format is functional.

Experiment [17] concerns INS1. Description: INS-1E survival protection against cytokine death – cell-based, luminescence, retest, dose response (AID 449756).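 Further: cell death triggered by IL-1 beta plus TNF-alpha plus IFN-gamma mixture; protective hits raise ATP signal compared with cytokine alone wells.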 Conditions: Rattus norvegicus. The format is functional.
For experiment [18], the target named is T5, Protein RecA (Mycobacterium tuberculosis, UniProt P9WHJ3).
T5 sequence (P9WHJ3 whole entry): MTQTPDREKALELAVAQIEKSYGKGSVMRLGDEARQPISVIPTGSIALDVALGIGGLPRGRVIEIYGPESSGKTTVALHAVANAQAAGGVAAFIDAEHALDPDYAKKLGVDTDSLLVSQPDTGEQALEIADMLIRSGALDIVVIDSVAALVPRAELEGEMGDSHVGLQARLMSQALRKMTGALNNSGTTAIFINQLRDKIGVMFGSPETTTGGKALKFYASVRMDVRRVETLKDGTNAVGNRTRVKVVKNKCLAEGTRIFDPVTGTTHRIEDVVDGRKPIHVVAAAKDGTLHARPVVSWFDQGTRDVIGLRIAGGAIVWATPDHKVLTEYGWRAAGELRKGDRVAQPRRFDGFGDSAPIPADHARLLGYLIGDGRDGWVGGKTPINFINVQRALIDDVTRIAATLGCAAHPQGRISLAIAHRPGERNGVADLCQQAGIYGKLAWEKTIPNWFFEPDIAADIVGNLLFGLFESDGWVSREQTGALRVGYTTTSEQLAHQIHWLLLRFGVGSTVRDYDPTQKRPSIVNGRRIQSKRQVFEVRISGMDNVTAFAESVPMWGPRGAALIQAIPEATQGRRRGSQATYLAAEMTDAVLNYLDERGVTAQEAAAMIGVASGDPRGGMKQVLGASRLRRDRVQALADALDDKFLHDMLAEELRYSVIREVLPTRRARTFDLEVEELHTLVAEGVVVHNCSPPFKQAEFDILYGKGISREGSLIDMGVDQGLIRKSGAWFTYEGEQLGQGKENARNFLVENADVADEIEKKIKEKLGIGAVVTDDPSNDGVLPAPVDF
Put plainly: Fluorescence Cell-Free Homogeneous Dose Retest to Identify Inhibitors of RecA-Intein Splicing Activity. [Related pubchem assays (depositor defined):AID2097, AID2223, AID489010, AID492950]. The format is functional.

Calls of active or inactive are those of the source.

What is called IC50 is the concentration at which inhibition is half-maximal. For the molecule `COc1cccc(-c2nc(-c3ccc4c(c3)-c3ccccc3S4(=O)=O)c(-c3ccccc3)[nH]2)c1OC`, the figures for the IC50 in experiment [1] and in experiment [2] were > 100 µM (inactive) and 33.6 µM (active), respectively.

For orientation: EC50 means the concentration giving half of the maximal effect. The AC50 is the concentration giving half of the maximal activity seen. In the case of `O=[N+]([O-])c1ccc(N2CCCCCC2)c2nonc12`, the EC50 in [3] is 0.413 µM (active). The figures for the AC50 in [4] and in experiment [5] were 54.6 µM (active) and 69.4 µM (active), respectively. For the same molecule, the results for the IC50 in experiment [6] and in experiment [7] were > 59.6 µM (inactive) and 22.4 µM (inactive), respectively.

With `CCc1ccc(S(=O)(=O)NCc2ccc(C(=O)NCCN(C)[C@@H](C)c3ccccc3)cc2)cc1`, the IC50 in experiment [8] is > 32 µM (inactive); in experiment [9], > 32 µM (inactive); in experiment [10], 0.749 µM (active); in experiment [11], 3.75 µM (active).

As usually defined, the CC50 is the concentration that lowers cell viability or growth by half. Turning to `Cc1c(/C=N/Nc2nc3ccccc3[nH]2)c2ccccc2n1C`, the concentration at half-maximal activity (AC50) in [12] was 3.82 µM (active); in [17] it was 4.83 µM (active). The CC50 in experiment [13] is 18.1 µM (active); in experiment [14], 39.2 µM (active). Moreover, the IC50 in experiment [15] was 6.78 µM (active); in [16], 1.76 µM (active). Besides, in [18], the half-maximal effective concentration (EC50) is 1.99 µM (active).
